Key:
HIV = conditions: compared with emtricitabine (FTC); cited from earlier work
HCoV-229E = assay: Inhibition of virus-induced cytopathic effect (MTT), HCoV-229E; type: cell-based; conditions: Human coronavirus 229E, CPE inhibition, 100 TCID50, 72–96 h
[1] = Cytotoxicity (CC50) in Vero E6 and huh-7 cells; type: cell-based; conditions: African green monkey (Vero E6) and human (huh-7), Vero E6 cells and huh-7 cells
SARS-CoV-2 EG.5.1.1 = assay: Inhibition of virus-induced cytopathic effect (MTT), SARS-CoV-2 EG.5.1.1; type: cell-based; conditions: Severe acute respiratory syndrome coronavirus 2
SARS-CoV-2 BQ.1.1.45 = assay: Inhibition of virus-induced cytopathic effect (MTT), SARS-CoV-2 BQ.1.1.45; type: cell-based; conditions: Severe acute respiratory syndrome coronavirus 2
SARS-CoV-2 XBB.1.16 = assay: Inhibition of virus-induced cytopathic effect (MTT), SARS-CoV-2 XBB.1.16; type: cell-based; conditions: Severe acute respiratory syndrome coronavirus 2

SMILES	times higher anti-HIV activity than the parent drug (HIV)	IC50 (HCoV-229E)	CC50 [1]	IC50 (SARS-CoV-2 EG.5.1.1)	IC50 (SARS-CoV-2 BQ.1.1.45)	IC50 (SARS-CoV-2 XBB.1.16)
CCCCCCCCCCCCCC(=O)OC[C@@H]1O[C@H](n2cc(F)c(N)nc2=O)CS1	10–24 times	–	–	–	–	–
CC(C)C(=O)OC[C@H]1O[C@@H](n2ccc(NO)nc2=O)[C@H](O)[C@@H]1O [EIDD-2801, Molnupiravir, reference compound]	–	3.44 µM	≥ 50 µM	0.53 µM	0.31 µM	1.51 µM
Cc1ccc(CC(=O)OC[C@H]2O[C@@H](n3ccc(NO)nc3=O)[C@H](O)[C@@H]2O)cc1 [SN_14, 5′-O-(4-Methylphenyl)acetyl-N4-hydroxycytidine]	–	10.5 µM	≥ 50 µM	1.09 µM	0.7 µM	2.16 µM
COc1cccc(CC(=O)OC[C@H]2O[C@@H](n3ccc(NO)nc3=O)[C@H](O)[C@@H]2O)c1 [SN_15, 5′-O-(3-Methoxyphenyl)acetyl-N4-hydroxycytidine]	–	11.1 µM	≥ 50 µM	0.53 µM	0.74 µM	2.09 µM
COc1ccc(CC(=O)OC[C@H]2O[C@@H](n3ccc(NO)nc3=O)[C@H](O)[C@@H]2O)cc1 [SN_16, 5′-O-(4-Methoxyphenyl)acetyl-N4-hydroxycytidine]	–	7.29 µM	≥ 50 µM	0.56 µM	0.71 µM	2.02 µM
O=C(Cc1ccccc1F)OC[C@H]1O[C@@H](n2ccc(NO)nc2=O)[C@H](O)[C@@H]1O [SN_17, 5′-O-(2-Fluorophenyl)acetyl-N4-hydroxycytidine]	–	7.86 µM	≥ 50 µM	0.98 µM	0.65 µM	1.69 µM
O=C(Cc1ccc(F)cc1)OC[C@H]1O[C@@H](n2ccc(NO)nc2=O)[C@H](O)[C@@H]1O [SN_18, 5′-O-(4-Fluorophenyl)acetyl-N4-hydroxycytidine]	–	21 µM	≥ 50 µM	1.78 µM	1.21 µM	2.76 µM
O=C(Cc1ccccc1Cl)OC[C@H]1O[C@@H](n2ccc(NO)nc2=O)[C@H](O)[C@@H]1O [SN_19, 5′-O-(2-Chlorophenyl)acetyl-N4-hydroxycytidine]	–	23.8 µM	≥ 50 µM	2.16 µM	2.34 µM	5.71 µM
O=C(OC[C@H]1O[C@@H](n2ccc(NO)nc2=O)[C@H](O)[C@@H]1O)C1(c2ccccc2)CC1 [SN_20, 5′-O-(1-Phenylcyclopropanoyl-1-carbonyl)-N4-hydroxycytidine]	–	> 100 µM	≥ 50 µM	> 100 µM	≥ 50 µM	> 100 µM
O=C(COc1ccccc1)OC[C@H]1O[C@@H](n2ccc(NO)nc2=O)[C@H](O)[C@@H]1O [SN_21, 5′-O-Phenoxyacetyl-N4-hydroxycytidine]	–	5.13 µM	≥ 50 µM	0.83 µM	0.86 µM	1.28 µM
Cc1cccc(OCC(=O)OC[C@H]2O[C@@H](n3ccc(NO)nc3=O)[C@H](O)[C@@H]2O)c1 [SN_22, 5′-O-(3-Methylphenoxy)acetyl-N4-hydroxycytidine]	–	1.62 µM	≥ 50 µM	0.2 µM	0.21 µM	0.25 µM
COc1cccc(CCC(=O)OC[C@H]2O[C@@H](n3ccc(NO)nc3=O)[C@H](O)[C@@H]2O)c1 [SN_23, 5′-O-3-(3-Methoxyphenyl)propanoyl-N4-hydroxycytidine]	–	1.68 µM	≥ 50 µM	0.3 µM	0.26 µM	1.02 µM

Reference: PMC10821229, “Synthesis and Antiviral Activity of Novel β-D-N4-Hydroxycytidine Ester Prodrugs as Potential Compounds for the Treatment of SARS-CoV-2 and Other Human Coronaviruses” (Pharmaceuticals, 2023)
